{"source": "paper PMC8320996", "about": "“Negative regulation of melatonin secretion by melatonin receptors in ovine pinealocytes” (PLoS ONE, 2021)", "target": "T1, MT1", "T1 construct": "gene MTNR1A; native receptors in primary ovine pinealocytes (MT1 and MT2 not resolved)", "experiment": "saturation radioligand binding on primary ovine pinealocytes, Scatchard analysis", "assay_type": "cell-based, Ovis aries", "data": [{"smiles": "COc1ccc2[nH]c(I)c(CCNC(C)=O)c2c1", "note": "[2-[^125I]-MLT]", "values": [{"measurement": "Kd", "value": "2.24 ± 1.1", "unit": "nM"}]}]}
